Measurements as given in patent publication US20050148495A1, “Methods and materials including for treating acne” (priority 2003, published 2005).
≈ marks a conversion by molar mass, not a printed value. Like-named read-outs stand apart in the source and are kept apart here. Non-standard residues stand in square brackets, D forms with d. Residues, ends and D or L forms follow the SMILES beside them. d1Nal = N[C@H](Cc1cccc2ccccc12)C(=O)O

Columns and labels:
in vivo [1] = settings: both, Sprague-Dawley, rat, plasma, 0.2 mg/kg
Description: Using non-radiolabeled XMP.629, a pharmacokinetic study was conducted in an analogous manner as described above for ^3H-XMP.629. However, in this study, a 0.05 or a 0.2 mg/kg intravenous dose of XMP.629 was administered to 2 males and 2 females rats. Blood samples were collected for 168 hours following dosing and plasma XMP.629 concentrations were measured using liquid chromatography/mass spectrometry (LC/MS).

in vivo [2] = settings: both, rat, plasma, po, 10 mg/kg, mean; for bioavailability: % F (bioavailability); for AUC: AUCall
[3] = tested on: E. coli 0111 :B4 lipopolysaccharide challenge in CD-1 mice; assay: Murine model of endotoxemia (survival); type: in vivo; settings: 0.65 mg/kg intravenously; 25 mg/kg LPS; seven days
Description: This example addresses studies relating to additional activities of XMP.629, including its known endotoxin-related activities. […] For these studies, groups of 15 male CD-1 mice were challenged with 25 mg/kg E. coli 0111 :B4 lipopolysaccharide via tail vein injection. Immediately following endotoxin challenge, mice were treated intravenously with XMP.629 at 0.07, 0.2, 0.65 mg/kg or saline. Animals were observed twice daily and mortality was recorded for seven days.

protease = assay: Resistance to protease degradation
Description: In additional studies, a variety of formulations of XMP.629 were tested for stability under various temperatures, such as 25° C., 40° C., and 50° C., and at various time points, such as 0.5, 1, and 2 months.

[4] = tested on: Propionibacterium isolates; settings: 15 isolates
Description: Inoculum from a representative panel of bacterial strains associated with acne, such as P. acnes, P. avidum, P. granulosum, and Staphylococcus epidermis was prepared by suspending approximately 5-10 isolated bacterial colonies in pre-reduced MicroScan® Inoculum Water (Dade Behring, Deerfield, Ill.), and growing the bacterial suspension to log phase (approximately 48 hrs). An inoculum of between 1-5×10^6/mL was achieved by adding 100 μL of the suspension to 25 mL Brain Heart Infusion Broth (BHI) (Anaerobe Systems, Morgan Hill, Calif.).
Control tubes containing only water or formulation buffer were prepared for each isolate. Initial growth controls were determined by removing 10 μL from the water control tube and diluting it by 100 fold. From this dilution, 10 μL was used for inoculation and for spreading over the surface onto Laked Blood Agar (LBA) (Anaerobe Systems, Morgan Hill, Calif.) plates. The tubes and plates were incubated in an anaerobic atmosphere at 37° C. for 48 h. […] MBC50 and 90 values represent where 50 and 90%, respectively, of the tested strain's MBC values are equal to or less than the indicated concentration.

[5] = tested on: CD [Crl:CD (SD) IGS BR] rats; assay: Rat acute oral toxicity test; type: in vivo
Description: XMP.629 was evaluated for acute toxicity following a single dose by oral gavage. The study consisted of three treatment groups of five male and five female CD [CrI:CD (SD) IGS BR] rats which received XMP.629 as a gel at concentrations of 0.1, 0.5, and 1.0% of XMP.629 respectively at a volume of 10 mL/kg. An additional group of five rats per sex served as the control and received control gel at the same volume. All rats were observed twice daily for morbidity, mortality, injury, and availability of food and water. Body weights were measured pretest and at different intervals during the study for all rats; observations for clinical signs were conducted pretest and at approximately 2 and 4 hours following the dose; and daily clinical observations were conducted daily until Day 14. At study termination, gross necropsies were conducted and macroscopic observations were recorded for all animals.

Streptococcus mutans = assay: MIC, panel of human pathogens, standardized NCCLS protocols; type: cell-based; settings: Streptococcus mutans 25175
[6] = 10 mg/kg XMP.629 acetate oral gavage in 5% glucose
[7] = 10 mg/kg XMP.629 acetate oral gavage in distilled water
[8] = Formulation Buffer Solvent, Study 1
[9] = Formulation Buffer Solvent, Study 2

## CC(C)C[C@@H](NC(=O)[C@H](N)CCCCN)C(=O)N[C@H](Cc1ccccc1)C(=O)N[C@H](CCCNC(=N)N)C(=O)N[C@H](Cc1cccc2ccccc12)C(=O)N[C@H](CCC(N)=O)C(=O)N[C@H](C)C(=O)N[C@H](CCCCN)C(=O)N[C@H](Cc1cccc2ccccc12)C(N)=O [XMP.629, NH2-lys-leu-phe-arg-(3-(1-naphthyl)-ala)-gln-ala-lys-(3-(1-naphthyl)-ala)-CONH2] (H-[dK][dL][dF][dR][d1Nal][dQ][dA][dK][d1Nal]-NH2)
In vivo [1]; intravenous
  clearance: ~5.33 mL/min/kg
In vivo [1]; intravenous, alpha half-life, two compartment model
  half-life: ~20 min
In vivo [1]; intravenous, terminal half-life, two compartment model
  half-life: ~960 min
In vivo [1]; iv
  AUC: 744 ng·h/mL
  clearance: 5.32 mL/min/kg
In vivo [1]; iv, Vc (volume of distribution of the central compartment), non-labeled XMP.629, 0.2 mg/kg intravenous, LC/MS, two compartment model, mean
  Vd: 0.202 L/kg
In vivo [1]; iv, Vss (volume of distribution at steady state), non-labeled XMP.629, 0.2 mg/kg intravenous, mean
  Vd: 2.25 L/kg
In vivo [1]; iv, t1/2 (average half-life), non-labeled XMP.629, 0.2 mg/kg intravenous, mean
  half-life: 26.4 min
In vivo [1]; iv, t1/2 α (α half-life), non-labeled XMP.629, 0.2 mg/kg intravenous, mean
  half-life: 21.2 min
In vivo [1]; iv, t1/2 β (β half-life), non-labeled XMP.629, 0.2 mg/kg intravenous, mean
  half-life: 972 min
In vivo [2]; [6]
  bioavailability: 0.0044%
  AUC: 1.67 ng·h/mL
  Cmax: 4.6 ng/mL
  Tmax: 11.4 min
In vivo [2]; [7]
  bioavailability: 0.0015%
  AUC: 0.55 ng·h/mL
  Cmax: 1.5 ng/mL
  Tmax: 8.4 min
[3]
  survival in endotoxin-challenged mice: complete protection
protease
  protease degradation: substantially resistant to protease degradation
[4]; [8]
  MBC GeoMean Values: 1.2 µg/mL (≈ 0.935 µM)
  MIC GeoMean Values: 0.7 µg/mL (≈ 0.545 µM)
[4]; [9]
  MBC GeoMean Values: 1.10 µg/mL (≈ 0.857 µM)
  MIC GeoMean Values: 0.7 µg/mL (≈ 0.545 µM)
[4]; Water Solvent, Study 1
  MBC GeoMean Values: 2.41 µg/mL (≈ 1.88 µM)
  MIC GeoMean Values: 1.7 µg/mL (≈ 1.32 µM)
[4]; Water Solvent, Study 2
  MBC GeoMean Values: 1.9 µg/mL (≈ 1.48 µM)
  MIC GeoMean Values: 1.7 µg/mL (≈ 1.32 µM)
[5]; 1.0% XMP.629, four hours after administration, four males and one female, resolved by Day 2
  clinical observation: Decreased activity
[5]; concentrations of 0.1 or 0.5% XMP.629
  clinical signs: No clinical signs of systemic toxicity
[5]; single oral gavage of gel, 10 mL/kg (10 mg/mL)
  minimum lethal dose: > 1 % XMP.629
Streptococcus mutans
  Minimum Inhibitory Concentrations: ≦1 μg/mL
